Data taken from patent publication US8119691B2, “Method for treating airway hyper-responsiveness with lipoxin analogs” (National Institutes of Health (NIH), priority 2001, dated 2012).

Tests used:
[1] = cited from earlier work
OVA sensitized mice = assay: Airway responsiveness to intravenous methacholine (lung resistance, ED200) in OVA sensitized and aerosol challenged mice; format: in vivo, mouse (BALB/c)
Procedure: FIG. 1. Inhibition of airway hyper-responsiveness with LXa. OVA sensitized mice were treated with LXa ([…]) (o) or vehicle (•) prior to OVA aerosol challenge. Airway reactivity was determined by methacholine-dependent change in lung resistance (a) and calculation of ED200 (b). Results are expressed as mean±SEM (n≧17 in (a) and n≧6 (b)). *P<0.05 by Student's t-test compared to control animals.
After systemic sensitization to ovalbumin (OVA, 10 μg i.p.), male Balb/c mice (5-7 weeks) were exposed to aerosolized OVA (6%, 25 min) on four successive days. 24 hours after the last aerosol, bronchial responsiveness to intravenous methacholine was determined (as in refs. 14, 15), bronchoalveolar lavage was performed and tissues were harvested for microscopy. […] After allergen sensitization and aerosol challenge, high levels of both CysLT (139.0+/−27.3 pg CysLT/ml, mean+/−SEM, n=9) and PGE2 (1117.7+/−103.8 pg PGE2/ml, mean+/−SEM, n=5) in bronchoalveolar lavage (BAL) (Table 1) were identified. In these same BAL fluids, LXA4 was also present (15.0+/−3.3 pg LXA4/ml, mean+/−SEM, n=5) at levels similar to LTB4 (6.4+/−2.3 pg LTB4/ml, mean+/−SEM, n=9), but in 10- to 100-fold lower concentrations than CysLT's and PGE2, respectively (Table 1). LXA4 was not detected in cell-free BAL supernatants from non-immunized mice.
Sensitization and challenge protocols. Five to seven week old male BALB/c (Charles River Laboratories, Wilmington, Mass.) or female hCD11b-hALX FvB transgenic mice were housed in isolation cages under viral antibody-free conditions. After Harvard Medical Area IRB approval (Protocol #02570), mice were sensitized with intraperitoneal injections of ovalbumin (OVA) (Grade III; Sigma Chemical Co., St. Louis, Mo.) (10 μg) plus 1 mg aluminum hydroxide (ALUM) (J.T. Baker Chemical Co.; Phillipsburg, N.J.) as adjuvant in 0.2 ml PBS on days 0 and 7. […] On day 18, 24 h after the last aerosol challenge, airway responsiveness to intravenous methacholine (33-1000 μg/kg) was measured, bilateral bronchoalveolar lavage (BAL) (2 aliquots of 1 ml PBS plus 0.6 mM EDTA) was performed and tissues (whole blood, lungs, mediastinal lymph nodes and spleen) were harvested for histological analysis. Lung resistance (RL) was measured using a sealed constant mass plethysmograph. […] For mice studied using a whole body plethysmograph to assess airway responsiveness (Buxco), each mouse was placed into a chamber and box pressure/time waveform was analyzed to yield the indicator of airflow obstruction, enhanced pause (Penh). […] Readings were initiated at 3 min and continued for 12 min. Peak and one min average Penh values were determined. Serum total IgE levels were determined by ELISA (Crystal Chem, Chicago, Ill.). […]

OVA sensitized FVB mice = assay: Allergic airway inflammation, BAL leukocyte differentials, comparison with Montelukast (FIG. 7); format: in vivo, mouse (FVB); set-up: dose or concentration left out as unconfirmed; details: days 14-17, at least 1 h prior to OVA aerosol; BAL day 18
Text: FIG. 7. Depicts regulation of allergic airway inflammation by 15-epi,16-para-fluoro-phenoxy-LXA4-methyl ester in comparison to a commercially available drug (Montelukast) used to treat chronic asthma.
Five to seven week old male FVB (Charles River Laboratories, Wilmington, Mass.) mice were housed in isolation cages under viral antibody-free conditions. After Harvard Medical Area IRB approval (Protocol #02570), mice were sensitized with intraperitoneal injections of ovalbumin (OVA) (Grade III; Sigma Chemical Co., St. Louis, Mo.) (10 mg) plus 1 mg aluminum hydroxide (ALUM) (J. T. Baker Chemical Co.; Phillipsburg, N.J.) as adjuvant in 0.2 ml PBS on days 0 and 7. On days 14, 15, 16 and 17, the mice received an analog of LXA4 (15-epi,16-para-fluoro-phenoxy-LXA4-methyl ester) ([…], 21.7 nmoles), montelukast ([…], 21.7 nmoles) or PBS with 1.6 mM CaCl2 and 1.6 mM MgCl2 (0.1 ml) by intravenous injection at least 1 h prior to an aerosol challenge containing either PBS or 6% OVA for 25 min/day. On day 18, 24 h after the last aerosol challenge, bilateral bronchoalveolar lavage (BAL) (2 aliquots of 1 ml PBS plus 0.6 mM EDTA) was performed. BAL fluids were centrifuged (2000 g, 10 min) and cells were resuspended in HBSS, enumerated by hemocytometer, and concentrated onto microscope slides by cytocentrifuge (STATspin) (265 g). […]

COC(=O)CCC[C@H](O)[C@H](O)/C=C/C=C/C=C\C=C\[C@H](O)COc1ccc(F)cc1 [LXa, 15-epi,16-para-fluoro-phenoxy-LXA4-methyl ester]
metabolic inactivation [1]: resists metabolic inactivation | ED200 to methacholine (OVA sensitized mice; LXa 10 μg i.v., OVA sensitized and challenged mice): approximated the responses of control mice that had been sensitized but not challenged with OVA | ED200 to methacholine, LXa administration alone (OVA sensitized mice; LXa alone, compared to control mice): no significant differences in ED200 compared to control mice | bronchoconstriction in response to methacholine (change in lung resistance) (OVA sensitized mice; LXa i.v. at least 60 min prior to OVA challenge, OVA sensitized mice): significantly inhibited bronchoconstriction in response to methacholine in a dose-dependent manner | deleterious physiologic or behavioral effects (OVA sensitized mice; LXa treated mice): Neither deleterious physiologic nor behavioral effects were evident | lymphocyte reduction compared with Montelukast (OVA sensitized FVB mice): statistically more effective than Montelukast in terms of lymphocyte reduction
